Assays:
Assay in all cases: GsX GloSensor assay with Gsα/q11
Assay type in all cases: cell-based
[1] = biological target: T1, human melanopsin F94^2.61C mutant (Homo sapiens, UniProt Q9UHM6, F127C); details: 16.7 μM AA92593, COS-1 cells, difference not statistically significant
T1 construct: the C-terminal amino acid residues (94, 140, 200, 214, 296, and 308 residues); expressed in transfected cells; host or cells: COS-1
Text: (§1) We substituted the residues Phe-94^2.61, Ser-188^ECL2, and Ser-269^6.52 in human melanopsin (Fig. 2, A and B) and examined the inhibitory effect of AA92593 on these mutants. Substitution of these amino acid residues with the corresponding amino acids in non-mammalian-type melanopsins (F94^2.61C, S188^ECL2T, and S269^6.52A) reduced the inhibitory effect of AA92593 compared to its effect on WT (Fig. 2, C–E). […] The antagonistic effect of AA92593 was reduced by ∼21% and ∼24% in the S188^ECL2T and S269^6.52A mutants, respectively (Fig. 2, D, E, and G). […] The volume change in side chain would affect arrangement of the amino acid residues around AA92593 (see below).
(§2) For GloSensor assay, opsins, GloSensor assay sensor (coded by pGlo-22F), and NanoBiT-tagged G proteins were transiently expressed in COS-1 cells (kindly provided from Dr David Farrens, Oregon Health and Science University) using PEI as described previously ([24], [52]). For the GsX GloSensor assay ([12], [13]), each well of a 96-well assay plate (Corning) was transfected with 50 ng opsin plasmid, 16.7 ng G protein plasmid, 50 ng pGlo-22F plasmid (Promega), and 500 ng PEI in 25 μl Opti-mem and 75 μl Dulbecco's modified Eagle's medium (D-MEM). […] For GFP-fluorescence microscopy, a 35-mm cell culture dish (IWAKI) was transfected with 2 μg melanopsin-GFP plasmid and 8 μg PEI in 400 μl Opti-mem and 1.2 ml D-MEM. […]
(§3) The transfected COS-1 cells were incubated at 37 °C, 5% CO2 for 2 days, and the medium was aspirated and exchanged with 50 μl of HBSS (145 mM NaCl, 10 mM D-glucose, 5 mM KCl, 1 mM MgCl2, 1.7 mM CaCl2, 1.5 mM NaHCO3, 10 mM Hepes, pH 7.4), containing 33.3, 20, 10, 2, 0.2, 0.02, 0.002, or 0 μM AA92593, 0.5% dimetyl sulfoxide (DMSO), and 4% (vol/vol) GloSensor cAMP reagent stock solution. […] Then, the cells were incubated at room temperature for 1 h, and luminescence changes were monitored. After incubation of the cells with AA92593, luminescence measurement was interrupted, the plate was ejected, and the cells were added with 50 μl of HBSS containing 0.2 μM 9-cis-retinal. […] Luminescence was measured using GM-2000 or GM-3510 microplate reader (Promega). Luminescence level of each well was measured every 30 s with integration time of 0.6 to 0.9 s. To illuminate opsins, luminescence measurement was interrupted, the plate was ejected, and the plate was illuminated by white light with CN-160 LED video light (light intensity, ∼9 mW/cm^2) (NEEWER). […] After illumination, luminescence measurement was resumed. The measured luminescence levels were normalized to the level at the starting point (time = 0 min). […]

[2] = test system: human melanopsin S269^6.52A mutant; details: 16.7 μM AA92593, COS-1 cells
Text: as §1, §2, §3

[3] = test system: human melanopsin S188^ECL2T mutant; details: 16.7 μM AA92593, COS-1 cells
Text: as §1, §2, §3

[4] = biological target: T2, human melanopsin S188^ECL2A mutant (Homo sapiens, UniProt Q9UHM6, S222A); details: 16.7 μM AA92593, COS-1 cells
T2 construct: expressed in transfected cells; host or cells: COS-1
Text: as §1, §2, §3

T2 sequence (Q9UHM6 1-384 S222A limits assumed): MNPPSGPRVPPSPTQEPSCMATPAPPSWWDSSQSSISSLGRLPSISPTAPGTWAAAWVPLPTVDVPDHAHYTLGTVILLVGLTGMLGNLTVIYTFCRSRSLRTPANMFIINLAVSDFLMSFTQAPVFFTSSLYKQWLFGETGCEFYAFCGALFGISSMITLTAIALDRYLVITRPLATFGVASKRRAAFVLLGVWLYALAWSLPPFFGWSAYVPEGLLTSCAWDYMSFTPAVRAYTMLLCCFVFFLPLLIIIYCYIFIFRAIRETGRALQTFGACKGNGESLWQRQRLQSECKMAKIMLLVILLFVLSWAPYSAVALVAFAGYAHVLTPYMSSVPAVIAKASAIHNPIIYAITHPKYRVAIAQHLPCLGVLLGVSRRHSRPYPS
T1 sequence (Q9UHM6 1-384 F127C limits assumed): as the sequence (Q9UHM6 1-384 S222A limits assumed) above, with F127C, A222S counted along it

Question: `COc1ccc(S(=O)(=O)N2CCCCC2)cc1C` [AA92593] was tested. Which “inhibitory effect of AA92593 compared to WT” value [1] did it give?
Answer: Its value is “consistently weaker”.

Question: And the “reduction of the antagonistic effect of AA92593 vs WT” value [2]?
Answer: Its value is ~24%.

Question: What about the “reduction of the antagonistic effect of AA92593 vs WT” value [3] of the same compound?
Answer: The value was ~21%.

Question: And the “change in the effect of AA92593 vs WT” value [4]?
Answer: The value was “did not induce a significant change”.

From paper PMC12051620, “Molecular basis underlying the specificity of an antagonist AA92593 for mammalian melanopsins” (The Journal of Biological Chemistry, 2025)
